“Also recorded” adds a separate entry of the source.
Assays:
SGS patient fibroblasts = assay: qPCR of TGFβ target genes in TGFβ1-stimulated primary human dermal fibroblasts; format: cell-based; details: for Expression level of COL3A1 and FN1 relative to β-actin / Expression level of SKI and SMAD7 relative to β-actin: control and SGS patient fibroblasts, vs vehicle treated
Procedure: Primary human dermal fibroblasts were derived from forearm skin biopsies of two controls and two patients with Shprintzen-Goldberg syndrome from previously described. The fibroblasts were cultured in Dulbecco's modified eagle medium (DMEM) with 10% fetal bovine serum (FBS) in the presence of antibiotics and passaged confluence. According to previously described protocols with slight modifications (2), all cell culture experiments were conducted in serum-starved media for 24 hours prior to drug treatment. Stimulation was performed using 10 ng/ml recombinant human TGFβ1 (R&D system). […] Cells were collected at baseline, 6 hours after TGFβ1 stimulation. RNA was extracted from the cells using Trizol (ThermoFisher) by RNeasy mini kit (QIAGEN), as per the manufacturer's manual.
Total RNA was isolated from mouse aortas or cultured cells by RNeasy mini kit (QIAGEN), as per the manufacturer's manual. Quantitative PCR was performed in triplicate with TaqMan Universal PCR Master Mix using an ABI Prism 7900 HT QPCR machine (all from Applied Biosystems), as per the manufacturer's manual. The following prevalidated TaqMan probes were used to detect specific transcripts: Mm00801666_g1 (Collal), Mm01254476_m1 (Col3A1), Mm01256744_m1 (Fn1), Mm04205640_g1 (Cdkn1a), Mm01192932_g1 (Ctgf), and Mm00435860_m1 (Serpine1), Mm00448744_m1 (Ski), Mm00456917_m1 (Skil), Mm00484742_m1 (Smad7) and Mm00607939_s1 (Actb) (Life Technologies). For human samples, the following probes were used: Hs00943809_m1 (COL3A1), Hs00365052_m1 (FN1), Hs00161707_m1 (SKI), Hs01045418_m1 (SKIL) and Hs01060665_g1 (ACTB). Reactions were run in triplicate, and relative quantification for each transcript was obtained by normalizing against housekeeping control transcript such as β-ACTIN (ACTB) according to the formula 2^−Ct/2^−Ct(ACTB).

TGFβ target genes = assay: qPCR of TGFβ target genes in mouse aorta; format: in vivo; details: C646 treated vs DMSO treated VSMC/Ski G34D/+ mice
Text: For quantitative RT-PCR and chromatin immunoprecipitation, mice aortic root and ascending aorta (above aortic root to the origin of right brachiocephalic trunk) harvested separately, snap-frozen in liquid nitrogen and stored at minus 80 degrees Celsius until processed. For RNA extraction, Aortas were homogenized in Trizol (ThermoFisher) by FastPrep-24 (MP Biomedicals, LLC.), as per the manufacturer's manual. After homogenization, RNA was extracted by RNeasy mini kit (QIAGEN), as per the manufacturer's manual. RNA samples were then stored once more at minus 80 degrees until quantitative RT-PCR experiment was performed.
C646 (Selleckchem, #S7152) was reconstituted in 10% DMSO (Sigma) dissolved in PBS, and administered daily by intraperitoneal (IP) injection at dose of 5 mg/kg/day. Treatment was initiated at 8 weeks of age and continued for 12 weeks. […]
Total RNA was isolated from mouse aortas or cultured cells by RNeasy mini kit (QIAGEN), as per the manufacturer's manual. Quantitative PCR was performed in triplicate with TaqMan Universal PCR Master Mix using an ABI Prism 7900 HT QPCR machine (all from Applied Biosystems), as per the manufacturer's manual. […] Reactions were run in triplicate, and relative quantification for each transcript was obtained by normalizing against housekeeping control transcript such as β-ACTIN (ACTB) according to the formula 2^−Ct/2^−Ct(ACTB).

VSMC/Ski G34D/+ mice [1] = assay: Aortic root histology (VVG and Masson-trichrome staining): wall thickness, elastin fiber disruptions; format: in vivo, mouse; details: for Final absolute aortic wall thickness / Final number of disruptions in elastin fiber architecture: C646 5 mg/kg/day IP, 12 weeks, aortic root sections, +/−SEM
Procedure: According to a previously described protocol with slight modification (1), mice that were analyzed for aortic histology had latex infused into the left ventricle through descending abdominal aorta. Mice were then fixed for 24 hours in 10% neutral buffered formalin and then switched into 70% ethanol until histological analysis was performed.
(§1) C646 (Selleckchem, #S7152) was reconstituted in 10% DMSO (Sigma) dissolved in PBS, and administered daily by intraperitoneal (IP) injection at dose of 5 mg/kg/day. Treatment was initiated at 8 weeks of age and continued for 12 weeks. 10% DMSO in PBS was administered as a control.
According to previously described protocols with slight modifications (1), latex-infused heart and aorta were removed from body and transected just below the level of the aortic annulus, and just above aortic root, and 2-3 mm transverse sections were mounted in 4% agar prior to paraffin fixation. Five micron aortic sections underwent Verhoeff-van Giesen (VVG) and Masson's Trichrome staining, and were imaged 40× magnification, using a Nikon Eclipse E400 microscope. Aortic wall thickness was measured of four sites of four representative sections for each mouse and the disruptions of elastin fiber architecture were counted in four sections every 25 micron from aortic annulus. All analyses were performed blinded to genotype and treatment arm and the results were averaged.

VSMC/Ski G34D/+ mice [2] = assay: Aortic root diameter and growth by echocardiography in C646-treated mice; format: in vivo, mouse; details: for Final absolute aortic root diameter: C646 5 mg/kg/day IP from 8 weeks of age; for Final absolute aortic root diameter / Final absolute aortic root growth rate: 12 weeks of treatment, +/−SEM; for Final absolute aortic root growth rate: C646 5 mg/kg/day IP
Procedure: as §1
Nair hair removal cream was used to remove fur from the anterior thorax of the mice the day prior to echocardiography. According to previously described with slight modifications (1), all echocardiography were performed on mice that were awake and unsedated with the use of the Vevo 2100 imaging system and 40 MHz transducer (Visualsonics). Mice were imaged at 8 weeks of age as a baseline and every 4 weeks thereafter, until 20 weeks of age. Mice aorta were imaged in the parasternal long-axis view. Three separate measurements of the maximal internal dimension at the sinus of Valsalva during systole were made in separate cardiac cycles and averaged. All imaging and analysis was performed blinded to genotype and treatment arm.

[3] = test system: histone 3 lysine 27 acetylation (H3K27ac); assay: Immunofluorescent detection of H3K27ac in aortic roots; format: in vivo, mouse; details: VSMC/Ski G34D/+ mice, C646 5mg/kg/day vs DMSO-treated
Procedure: For aorta frozen section, harvested aorta with heart was fixed in fresh 4% paraformaldehyde in PBS at 4 degree overnight and then placed in cold 30% sucrose in PBS solution and incubated at 4 degree overnight again. Tissue was then embedded in Tissue-Tek O.C.T compound ad snap-frozen in liquid nitrogen and stored at minus 80 degree until processed.
as §1
Immunofluorescence staining was performed as previous described (3). Frozen 10 μm long-axis view sections were obtained with a cryostat and mounted on glass slides. Sections were dried for at room temperature for overnight prior to staining. Sections were permeabilized in staining buffer (PBS containing 0.1% Triton-X 100) for 30 minutes and then incubated with Fc Receptor Block from Innovex for 30 minutes at room temperature, washed briefly in staining buffer, and then incubated again in blocking solution (0.1% Triton-X 100, 1:50 goat serum, 0.3M glycine) for 30 minutes. […]

[4] = C646 2004 for 24 hours pre-treated before TGFβ1 stimulation
[5] = C646 2004 for 24 hours pre-treated before TGFβ1 stimulation (10 ng/ml for 6 hours)
[6] = SD208 10 μM for 1 hour pre-treated before TGFβ1 stimulation (10 ng/ml for 6 hours)

Structure (SMILES) | Difference of COL3A1 and FN1 expression level between C646 treated SGS patient fibroblast and vehicle treated control fibroblasts (SGS patient fibroblasts; [4]) | Difference of SKI expression level between C646 treated SGS patient fibroblast and vehicle treated control fibroblast (SGS patient fibroblasts; [4]) | TGFβ target gene expression in SGS patient fibroblasts (SGS patient fibroblasts; comparable efficiency of a TGFβ type I receptor (Alk5) kinase inhibitor) | Expression level of COL3A1 and FN1 relative to β-actin (SGS patient fibroblasts; [5]) | Expression level of SKI and SMAD7 relative to β-actin (SGS patient fibroblasts; [5]) | Expression levels of TGFβ target genes relative to β-actin in aorta (TGFβ target genes) | Aortic wall architecture: medial thickening, elastic fiber fragmentation, collagen deposition (in words) (VSMC/Ski G34D/+ mice [1]; C646 treated vs DMSO treated VSMC/Ski G34D/+ mice, VVG and Masson-trichrome staining) | Final absolute aortic wall thickness (VSMC/Ski G34D/+ mice [1]; Control mice) | Final number of disruptions in elastin fiber architecture (VSMC/Ski G34D/+ mice [1]; Control mice) | Final absolute aortic wall thickness (VSMC/Ski G34D/+ mice [1]; VSMC/Ski G34D/+ mice) | Final number of disruptions in elastin fiber architecture (VSMC/Ski G34D/+ mice [1]; VSMC/Ski G34D/+ mice) | Aortic root diameter (in words) (VSMC/Ski G34D/+ mice [2]; C646 treated vs DMSO treated VSMC/Ski G34D/+ mice, echocardiogram) | Final absolute aortic root diameter (VSMC/Ski G34D/+ mice [2]; Control mice, echocardiogram) | Final absolute aortic root growth rate (VSMC/Ski G34D/+ mice [2]; Control mice) | Final absolute aortic root diameter (VSMC/Ski G34D/+ mice [2]; VSMC/Ski G34D/+ mice, echocardiogram) | Final absolute aortic root growth rate (VSMC/Ski G34D/+ mice [2]; VSMC/Ski G34D/+ mice) | Aneurysm progression (VSMC/Ski G34D/+ mice [2]; systemically-administered C646 in Ski VSMC:G34D/+ mice) | H3K27 acetylation in aortic root [3] | Expression level of COL3A1 and FN1 relative to β-actin (SGS patient fibroblasts; [6]) | Expression level of SKI and SMAD7 relative to β-actin (SGS patient fibroblasts; [6])
CC1=NN(c2ccc(C(=O)O)cc2)C(=O)C1=Cc1ccc(-c2cc(C)c(C)cc2[N+](=O)[O-])o1 (stereo in doubt) [C646, 4-[(4Z)-4-[[5-(4,5-dimethyl-2-nitrophenyl)furan-2-yl]methylidene]-3-methyl-5-oxopyrazol-1-yl]benzoic acid] | no significant difference | no significant difference | normalized TGFβ target gene expression | significantly decreased expression level | significantly decreased expression level | decreased expression levels of TGFβ target genes except COL1A1, SKI and SKIL; also recorded: normalizes gene expression in the aorta; also recorded: normalization of the TSR | reduced medial thickening and elastic fiber fragmentation and the recovered collagen deposition; also recorded: preserves aortic wall architecture; also recorded: preservation of aortic wall architecture | 58.547+/−1.415 μm | 1+/−0.577 | 63.438+/−1.818 μm | 6+/−1.155 | normalized aortic root diameter; also recorded: rescued aortic root diameter | 1.686+/−0.024 mm | 0.067+/−0.023 mm/12 weeks | 1.848+/−0.045 mm | 0.119+/−0.042 mm/12 weeks | abrogates aneurysm progression; also recorded: prevented aneurysm progression | decreased H3K27 acetylation; also recorded: prevention of excessive Histone 3 Lysine 27 (H3K27) acetylation | – | –
Fc1ccc(Cl)cc1-c1nc(Nc2ccncc2)c2nccnc2n1 [SD208] | – | – | – | – | – | – | – | – | – | – | – | – | – | – | – | – | – | – | significantly decreased expression level | significantly decreased expression level
